Laboratory results: US20230094952A1, “Method for Culturing Hematopoietic Stem Cells” (Sumitomo Pharma Co., Ltd., priority 2019, published 2023)

Test system: mouse long-term hematopoietic stem cells
Assay: Reproducibility and concentration dependence test: 1-week culture of sorted Hoxb5-tri-mCherry mouse long-term hematopoietic stem cells, flow cytometry
Format: cell-based
Settings: day 7 of culture, n=2
Description: Mice with insertion of a nucleic acid sequence containing three copies of a gene encoding the fluorescent protein mCherry to the C terminus of the mouse endogenous HoxB5 gene (Hoxb5-tri-mCherry) were used (triple-mCherry Hoxb5 knock-in mice; Non Patent Literature 1). The mice were housed under environmental conditions such that the room temperature and the humidity were 20 to 26° C. and 40 to 70%, respectively, under light for 12 hours and under dark for 12 hours (illumination: 8:00 a.m. to 8:00 p.m.).
Bone marrow cells were collected from the tibia, femur, humerus, and pelvis in each side of each of the mice, and gathered in a mortar. A buffer obtained by adding thermally deactivated bovine serum (manufactured by Gibco) at a final concentration of 2% and EDTA at a final concentration of 2 mM to Ca^2+-free and Mg^2+-free PBS was added, and the resultant was broken with a pestle to obtain a cell population including hematopoietic stem cells.
First, the thus-obtained cell population including hematopoietic stem cells was passed through strainers (meshes) of 100 μm, 70 μm, and 40 μm. The cell population was stained with an APC-binding anti-c-Kit (2B8) and fractionated with anti-APC magnetic beads and an LS column (both manufactured by Miltenyi Biotec) to obtain a cell population enriched with hematopoietic stem cells and progenitor cells.
Subsequently, cells being c-Kit-positive were stained with antibodies for the following cell surface markers.
Staining with the antibodies was performed at 4° C., and the cells were incubated for 30 minutes. For staining with the CD34 antibody, the cells were incubated for 90 minutes. Dead cell staining was performed with SYTOX Red Dead Cell Stain (manufactured by Life Technologies) in accordance with a method recommended by the manufacturer.
Flow cytometry analysis and cell classification (cell sorting) were performed with a FACS Aria II cell sorter (manufactured by BD Biosciences), wherein Lineage-negative, c-Kit-positive, Sca-1-positive, Flk2-negative, CD34-negative or weakly CD34-positive, CD150-positive, and mCherry-positive fractions were regarded as long-term hematopoietic stem cells, and analysis was performed with the software FlowJo (manufactured by Tree Star, Inc.).
The cells after classification were seeded in a 96-well plate. A cell culture medium was prepared by adding Stem Cell Factor (SCF, manufactured by PeproTech, Inc.) and Thrombopoietin (TPO, manufactured by PeproTech, Inc.) to StemSpan SFEM culture medium (manufactured by […] Technologies Inc.) and added in advance to a cell culture 96-well plate (manufactured by BD Biosciences) at 100 μL/well, and the cells sorted with the FACS Aria II cell sorter (BD Biosciences) were then seeded at 10 cells/well.
[…] Thereafter, the cells were cultured in a CO2 incubator under conditions of 37° C. and 5% CO2 for 1 week.
After culture, the cells were stained with the antibodies for the surface markers c-Kit and Sca-1, Ter-119, B220, CD3, CD4, CD8a, Gr-1, and CD11b, and the ratio and post-growth cell count of a KLS fraction (c-Kit^+, Lin^−, Sca-1^+) or an mCherry-positive fraction given with use of a FACS Aria II cell sorter were analyzed by using FlowJo (BD Biosciences). The mCherry-positive fraction is a cell fraction expressing the Hoxb5 gene, and the KLS fraction is a cell fraction being c-Kit-positive, Lin-negative, and Sca-1-positive, and includes hematopoietic stem cells and multipotent progenitor cells as main components. […]

| Compound | KLS-positive rate (Table 4, compound 0.1 μM) | Viable cell count (Table 4, compound 0.1 μM) | mCherry-positive rate (Table 4, compound 0.1 μM) | KLS-positive rate (Table 4, compound 0.3 μM) | Viable cell count (Table 4, compound 0.3 μM) | mCherry-positive rate (Table 4, compound 0.3 μM) | KLS-positive rate (Table 4, compound 1 μM) | Viable cell count (Table 4, compound 1 μM) | mCherry-positive rate (Table 4, compound 1 μM) | KLS-positive rate (Table 4, compound 3 μM) | Viable cell count (Table 4, compound 3 μM) | mCherry-positive rate (Table 4, compound 3 μM) | KLS-positive rate (Table 4, compound 10 μM) | Viable cell count (Table 4, compound 10 μM) | mCherry-positive rate (Table 4, compound 10 μM) | other results |
| --- | --- | --- | --- | --- | --- | --- | --- | --- | --- | --- | --- | --- | --- | --- | --- | --- |
| C[C@H]1[C@H](S(C)(=O)=O)O[C@@H]2O[C@@]3(C)CC[C@H]4[C@H](C)CC[C@@H]1[C@@]24OO3 [Example 1-5, (3R,5aS,6R,8aS,9R,10S,12S,12aR)-10-(Methanesulfonyl)-3,6,9-trimethyldecahydro-12H-3,12-epoxypyrano[4,3-j][1,2]benzodioxepine] | 18.2% | 443.5 cell | 11.5% | 41.7% | 221.5 cell | 8.5% | 20.0% | 308.0 cell | 4.5% | 30.8% | 184.0 cell | 41.5% | 0.0% | 1.5 cell | 0.0% | – |
| C[C@H]1[C@@H](C)O[C@@H]2O[C@@]3(C)CC[C@H]4[C@H](C)CC[C@@H]1[C@@]24OO3 [Example 1-6, (3R,5aS,6R,8aS,9R,10R,12R,12aR)-3,6,9,10-Tetramethyldecahydro-12H-3,12-epoxypyrano[4,3-j][1,2]benzodioxepine] | 34.8% | 147.0 cell | 2.0% | 20.9% | 190.0 cell | 15.6% | 19.8% | 183.5 cell | 24.4% | 17.6% | 215.5 cell | 80.8% | 47.8% | 37.5 cell | 98.4% | – |
| C[C@@H]1CC[C@H]2[C@@H](C)C(=O)O[C@@H]3O[C@@]4(C)CC[C@@H]1[C@]32O4 [Example 1-34, (3R,3aS,6R,6aS,9S,10aS,10bR)-3,6,9-Trimethyloctahydro-10aH-9,10b-epoxypyrano[4,3,2-jk][2]benzoxepin-2(3H)-one] | 77.3% | 136.5 cell | 11.7% | 28.4% | 389.0 cell | 18.3% | 21.8% | 713.5 cell | 15.2% | 27.7% | 268.0 cell | 14.6% | 27.5% | 70.0 cell | 0.4% | – |
| C[C@H]1[C@@H](Oc2ccccc2)O[C@@H]2O[C@@]3(C)CC[C@H]4[C@H](C)CC[C@@H]1[C@@]24OO3 [Example 1-21, (3R,5aS,6R,8aS,9R,10S,12R,12aR)-3,6,9-trimethyl-10-phenoxydecahydro-12H-3,12-epoxypyrano[4,3-j][1,2]benzodioxepine] | 0.0% | 0.0 cell | 0.0% | 0.0% | 2.0 cell | 50.0% | 0.0% | 0.5 cell | 0.0% | 0.0% | 0.5 cell | 50.0% | 0.0% | 0.5 cell | 50.0% | – |
| CCO[C@H]1O[C@@H]2O[C@@]3(C)CC[C@H]4[C@H](C)CC[C@@H]([C@H]1C)[C@@]24OO3 [Example 1-31, artemotil, reference compound] | 26.5% | 201.5 cell | 84.9% | 19.7% | 194.0 cell | 96.3% | 62.3% | 19.5 cell | 98.3% | 87.5% | 2.5 cell | 100.0% | 25.0% | 1.5 cell | 50.0% | KLS-positive rate (Table 3, compound 0.1 μM): 28.85%; Viable cell count (Table 3, compound 0.1 μM): 1073 cell; mCherry-positive rate (Table 3, compound 0.1 μM): 57.4%; KLS-positive rate (Table 3, compound 0.3 μM): 21.95%; Viable cell count (Table 3, compound 0.3 μM): 1529 cell; mCherry-positive rate (Table 3, compound 0.3 μM): 47.65%; KLS-positive rate (Table 3, compound 1 μM): 30.8%; Viable cell count (Table 3, compound 1 μM): 249 cell; mCherry-positive rate (Table 3, compound 1 μM): 92.85%; KLS-positive rate (Table 3, compound 3 μM): 66.65%; Viable cell count (Table 3, compound 3 μM): 8 cell; mCherry-positive rate (Table 3, compound 3 μM): 100%; KLS-positive rate (Table 3, compound 10 μM): 0%; Viable cell count (Table 3, compound 10 μM): 0 cell; mCherry-positive rate (Table 3, compound 10 μM): 0% |
| C[C@H]1[C@@H](F)O[C@@H]2O[C@@]3(C)CC[C@H]4[C@H](C)CC[C@@H]1[C@@]24OO3 [Example 1-1, (3R,5aS,6R,8aS,9R,10R,12S,12aR)-10-Fluoro-3,6,9-trimethyldecahydro-12H-3,12-epoxypyrano[4,3-j][1,2]benzodioxepine] | 46.5% | 477.0 cell | 0.5% | 0.0% | 0.0 cell | 0.0% | 0.0% | 0.5 cell | 50.0% | 0.0% | 0.0 cell | 0.0% | 0.0% | 0.0 cell | 0.0% | – |
| C[C@H]1[C@H](Oc2ccccc2)O[C@@H]2O[C@@]3(C)CC[C@H]4[C@H](C)CC[C@@H]1[C@@]24OO3 [Example 1-25, (3R,5aS,6R,8aS,9R,10R,12R,12aR)-3,6,9-trimethyl-10-phenoxydecahydro-12H-3,12-epoxypyrano[4,3-j][1,2]benzodioxepine] | 40.0% | 181.5 cell | 52.3% | 0.0% | 0.5 cell | 0.0% | 0.0% | 0.0 cell | 0.0% | 50.0% | 0.5 cell | 50.0% | 0.0% | 0.0 cell | 0.0% | – |
| CO[C@@H]1O[C@@H]2O[C@@]3(C)CC[C@H]4[C@H](C)CC[C@@H]([C@H]1C)[C@@]24OO3 [Example 1-35, (3R,5aS,6R,8aS,9R,10R,12R,12aR)-10-Methoxy-3,6,9-trimethyldecahydro-12H-3,12-epoxypyrano[4,3-j][1,2]benzodioxepine] | 13.8% | 763.5 cell | 3.0% | 19.9% | 544.5 cell | 48.5% | 17.9% | 554.0 cell | 74.0% | 48.7% | 104.5 cell | 92.2% | 46.7% | 121.5 cell | 99.6% | – |
